Where two headings read alike, the source gives them in different places.
Tests used:
A549 EGFR-WT = experiment: Cell proliferation inhibition experiment (CCK-8), A549; details: Homo sapiens, A549, 72 h
[1] = molecular target: EGFR-Del19/T790M/C797S kinase (Homo sapiens, UniProt P00533, C797S/T790M, form not given); experiment: In-vitro enzyme experiment 2 (HTRF kinase assay), EGFR Del19 T790M C797S; format: biochemical; details: read-out: enzyme inhibition IC50 (nM) EGFR-Del19/T790M/C797S
Experimental: The specific experiment was as follows: • 1. […] Test method of activity of compound • a) a compound diluent was transferred to each well of an assay plate (784075, Greiner) using Echo 550; • b) the assay plate was sealed and centrifuged at 1,000 g for 1 min; • c) 2×EGFR (D770-N771 ins NPG T790M) was prepared in a 1× kinase buffer; • d) 5 μl of the 2×EGFR (D770-N771 ins NPG T790M) was added to a 384-well assay plate (784075, Greiner); • e) the assay plate was centrifuged at 1,000 g for 30 s and incubated at room temperature for 10 min; • f) 2× TK-substrate-biotin (2 μM) and ATP were added to the 1× kinase buffer and mixed; • g) the reaction was started after adding 5 μl of the TK-substrate-biotin (2 μM) and ATP mixture; • h) the assay plate was centrifuged at 1,000 g for 30 s; and the assay plate was sealed and incubated at room temperature for 40 min; • i) 4× Sa-XL 665 was prepared in an HTRF detection buffer; • j) 5 μl of the Sa-XL 665 and 5 μl of a TK-antibody-cryptate were added to each well of the assay plate; • k) the assay plate was centrifuged at 1,000 g for 30 s and incubated at room temperature for 1 h; and • l) fluorescence signals at 615 nm (cryptate) and 665 nm (XL665) were read on an Envision 2104 reader. • 3. Data analysis • 3.1 Calculation of ratio (665/615 nm) of each well • 3.2 Calculation of inhibition rate
[formula] • 3.3 Calculation of IC50 value of compound and drawing dose-effect curve of compound • IC50 values were calculated using GraphPad 6.0 by applying a non-linear regression curve (dose-effect relationship-variable slope) of the logarithm of the compound concentration versus the inhibition rate.
The preparation of the kinase buffer, the test method of the activity of the compound, and the data analysis referred to the relevant definitions in example 117, wherein step c) of the test method of the activity of the compound was replaced by preparing 2×EGFR Del19 T790M C797S in the 1× kinase buffer.

[2] = system: KC-1474:PC-9 EGFR-Del19/T790M/C797S; experiment: Cell proliferation inhibition experiment (CCK-8), KC-1474; format: cell-based; details: Homo sapiens, 72 h
From the text: (§1) Inhibition rate %=[(A0−AS)/(A0−AC)]×100%.

[3] = system: KC-0178:NCI-1975 EGFR-L858R/T790M/C797S; experiment: Cell proliferation inhibition experiment (CCK-8), KC-0178; format: cell-based; details: Homo sapiens, 72 h
From the text: as §1

PC-9 EGFR-Del19 = experiment: Cell proliferation inhibition experiment (CCK-8), PC-9; format: cell-based; details: Homo sapiens, 72 h
From the text: as §1

H1975 EGFR-L858R/T790M = experiment: Cell proliferation inhibition experiment (CCK-8), H1975; format: cell-based; details: Homo sapiens, NCI-H1975, 72 h
From the text: as §1

[4] = read-out: cell proliferation inhibition IC50 (μM) A549, 72 h, CCK-8, Table 5 numeric
[5] = read-out: cell proliferation inhibition IC50 (μM) A549

Chain of EGFR-Del19/T790M/C797S kinase (P00533 25-1210 T790M/C797S limits assumed, form open): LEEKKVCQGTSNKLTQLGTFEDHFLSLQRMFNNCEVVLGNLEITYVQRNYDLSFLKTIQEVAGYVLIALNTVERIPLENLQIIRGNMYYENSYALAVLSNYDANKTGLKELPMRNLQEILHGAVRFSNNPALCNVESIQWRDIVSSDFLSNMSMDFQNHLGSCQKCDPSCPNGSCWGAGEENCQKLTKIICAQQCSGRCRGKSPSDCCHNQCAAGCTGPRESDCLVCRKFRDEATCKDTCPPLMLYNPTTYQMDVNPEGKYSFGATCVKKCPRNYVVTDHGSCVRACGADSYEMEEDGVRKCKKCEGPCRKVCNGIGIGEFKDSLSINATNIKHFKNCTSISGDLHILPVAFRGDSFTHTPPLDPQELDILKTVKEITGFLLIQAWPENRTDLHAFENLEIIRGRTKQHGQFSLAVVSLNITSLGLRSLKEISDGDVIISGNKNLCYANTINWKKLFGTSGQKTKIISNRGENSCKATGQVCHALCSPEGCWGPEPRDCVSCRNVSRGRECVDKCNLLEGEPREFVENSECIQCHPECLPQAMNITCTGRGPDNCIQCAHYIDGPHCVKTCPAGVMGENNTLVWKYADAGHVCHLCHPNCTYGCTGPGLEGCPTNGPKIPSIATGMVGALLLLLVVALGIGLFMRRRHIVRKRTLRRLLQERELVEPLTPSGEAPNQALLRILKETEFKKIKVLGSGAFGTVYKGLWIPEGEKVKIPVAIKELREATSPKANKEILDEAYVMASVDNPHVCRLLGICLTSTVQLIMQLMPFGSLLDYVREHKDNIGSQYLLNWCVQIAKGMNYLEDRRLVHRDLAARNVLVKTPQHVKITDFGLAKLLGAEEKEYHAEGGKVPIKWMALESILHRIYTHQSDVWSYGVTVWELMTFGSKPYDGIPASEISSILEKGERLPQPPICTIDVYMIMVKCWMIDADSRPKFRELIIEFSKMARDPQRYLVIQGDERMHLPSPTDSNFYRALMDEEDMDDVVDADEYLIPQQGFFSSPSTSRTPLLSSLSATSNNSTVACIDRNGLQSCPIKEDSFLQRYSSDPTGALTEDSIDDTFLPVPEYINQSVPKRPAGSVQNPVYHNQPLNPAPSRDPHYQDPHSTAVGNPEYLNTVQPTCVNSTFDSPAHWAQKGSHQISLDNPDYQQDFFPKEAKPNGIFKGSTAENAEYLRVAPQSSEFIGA

## COc1cc(N2CCOCC2)ccc1Nc1nc(N[C@H]2CC[C@H](CO)CC2)c2c(C(=O)c3ccc(F)cc3)c[nH]c2n1 [Example 81]
A549 EGFR-WT; [4]
  IC50: 0.92 µM

## CN1CCN(c2ccc(Nc3nc(NC4CCCCC4)c4c(C(=O)c5ccc(F)cc5)c[nH]c4n3)cc2)CC1 [Example 41]
[1]
  IC50: 100 to 600 nM

## CC(C)N1CCC(Nc2nc(Nc3ccc(N4CCOCC4)cc3)nc3[nH]cc(C(=O)c4ccc(F)cc4)c23)CC1 [Example 99]
A549 EGFR-WT; [4]
  IC50: 0.76 µM

## CN1CCN(c2ccc(Nc3nc(N[C@@H]4CCCOC4)c4c(C(=O)c5ccc(F)cc5)c[nH]c4n3)cc2)CC1 [Example 58]
[1]
  IC50: 100 to 600 nM

## CN1CCN(c2ccc(Nc3nc(NC4(CO)CCCC4)c4c(C(=O)c5ccc(F)cc5)c[nH]c4n3)cc2)CC1 [Example 11]
[1]
  IC50: 100 to 600 nM

## CN1CCN(c2ccc(Nc3nc(OC4CCOCC4)c4c(C(=O)c5ccc(F)cc5)c[nH]c4n3)cc2)CC1 [Example 84]
[1]
  IC50: 100 to 600 nM

## CN1CCN(c2ccc(Nc3nc(N[C@H]4CC[C@H](CO)CC4)c4c(C(=O)c5ccc(F)cc5)c[nH]c4n3)cc2F)CC1 [Example 78]
[1]
  IC50: 10 to 100 nM
[2]
  IC50: < 0.1 µM
[3]
  IC50: 1 to 2 µM
PC-9 EGFR-Del19
  IC50: < 0.1 µM
H1975 EGFR-L858R/T790M
  IC50: 0.1 to 1 µM

## O=C(c1ccc(F)cc1Cl)c1c[nH]c2nc(Nc3ccc(N4CCOCC4)cc3)nc(N[C@H]3CC[C@H](CO)CC3)c12 [Example 105]
A549 EGFR-WT; [4]
  IC50: 0.29 µM

## CN1CCN(c2ccc(Nc3nc(N[C@@H]4C=C[C@H](CO)C4)c4c(C(=O)c5ccc(F)cc5)c[nH]c4n3)cc2)CC1 [Example 19]
[1]
  IC50: 10 to 100 nM
[2]
  IC50: 0.1 to 1 µM
[3]
  IC50: 1 to 2 µM
PC-9 EGFR-Del19
  IC50: < 0.1 µM
H1975 EGFR-L858R/T790M
  IC50: 0.1 to 1 µM
A549 EGFR-WT; read-out: cell proliferation inhibition IC50 (μM) A549, 72 h, CCK-8
  IC50: 0.1 to 1 µM

## COc1cc(N2CCN(C)CC2)ccc1Nc1nc(N[C@H]2CC[C@H](CO)CC2)c2c(C(=O)c3ccc(F)cc3)c[nH]c2n1 [Example 80]
[1]
  IC50: 100 to 600 nM

## COc1nn(C)cc1Nc1nc(N[C@H]2CC[C@H](CO)CC2)c2c(C(=O)c3ccc(F)cc3)c[nH]c2n1 [Example 112]
[1]
  IC50: 100 to 600 nM

## O=C(c1ccc(F)c(F)c1F)c1c[nH]c2nc(Nc3ccc(N4CCOCC4)cc3)nc(N[C@H]3CC[C@H](CO)CC3)c12 [Example 108]
[1]
  IC50: 100 to 600 nM

## O=C(c1ccc(F)cc1)c1c[nH]c2nc(Nc3ccc(N4CCOCC4)c(F)c3)nc(N[C@H]3CC[C@H](CO)CC3)c12 [Example 82]
[1]
  IC50: 100 to 600 nM

## CN(C)CCOc1ccc(Nc2nc(N[C@H]3CC[C@@H](CO)CC3)c3c(C(=O)c4ccc(F)cc4)c[nH]c3n2)cc1 [Example 107]
[1]
  IC50: 10 to 100 nM
[2]
  IC50: 0.1 to 1 µM
[3]
  IC50: 1 to 2 µM
PC-9 EGFR-Del19
  IC50: < 0.1 µM
H1975 EGFR-L858R/T790M
  IC50: 0.1 to 1 µM

## CN1CCN(c2ccc(Nc3nc(N[C@@H]4CCOC4)c4c(C(=O)c5ccc(F)cc5)c[nH]c4n3)cc2)CC1 [Example 68]
[1]
  IC50: 100 to 600 nM

## CN1CCN(c2ccc(Nc3nc(N[C@H]4CCCN(S(=O)(=O)C5CC5)C4)c4c(C(=O)c5ccc(F)cc5)c[nH]c4n3)cc2)CC1 [Example 21]
A549 EGFR-WT; [4]
  IC50: 0.61 µM

## C=CC(=O)Nc1cc(Nc2nccc(-c3cn(C)c4ccccc34)n2)c(OC)cc1N(C)CCN(C)C [Osimertinib, reference compound]
[2]
  IC50: 1 to 2 µM
[3]
  IC50: 1 to 2 µM
A549 EGFR-WT; [5]
  IC50: 3.01 µM

## CN1CCN(c2ccc(Nc3nc(N[C@@H]4CCCN(S(=O)(=O)C5CC5)C4)c4c(C(=O)c5ccc(F)cc5)c[nH]c4n3)cc2)CC1 [Example 3]
A549 EGFR-WT; [5]
  IC50: 2.67 µM

## O=C(c1ccccc1)c1c[nH]c2nc(Nc3ccc(N4CCOCC4)cc3)nc(N[C@H]3CC[C@H](CO)CC3)c12 [Example 98]
[1]
  IC50: 100 to 600 nM

## CN1CCN(c2ccc(Nc3nc(N[C@@H]4CC[C@@H](CO)OC4)c4c(C(=O)c5ccc(F)cc5)c[nH]c4n3)cc2)CC1 [Example 95]
[1]
  IC50: 10 to 100 nM
[2]
  IC50: 0.1 to 1 µM
[3]
  IC50: < 0.1 µM

Reference: patent publication US20250122202A1, “EGFR INHIBITOR, PREPARATION METHOD THEREFOR AND USE THEREOF” (SHANDONG NEW TIME PHARMACEUTICAL CO., LTD., priority 2021, published 2025)
